Experimental data reported in patent US6461997B1, “Triazole sulfones having herbicidal activity” (Monsanto Technology LLC, priority 1999, dated 2002).

Assays:
[1] = test system: SOLNI (black nightshade); assay: Pre-emergence herbicidal activity, warm season; assay type: in vivo, Solanum nigrum; details: GR80 = lowest tested rate (300, 100, 30, 10 g/ha) with 80% or greater inhibition; approx. 14 days after treating; 30/21° C.
Summary of the method: (§1)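 Seeds sown in sterilised fertilised topsoil received surface-applied compound in 50:50 acetone/water, typically at 300, 100, 30 and 10 g/ha, then greenhouse-grown at 30/21° C (warm-season species) or 18/13° C (cool-season species). Percent inhibition versus untreated plants was scored at about 14 days, giving GR80; an asterisk marks activity short of 80% at the top rate.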

[2] = test system: CHEAL (common lambsquarters); assay: Pre-emergence herbicidal activity, warm season; assay type: in vivo, Chenopodium album; details: GR80 = lowest tested rate (300, 100, 30, 10 g/ha) with 80% or greater inhibition; approx. 14 days after treating; 30/21° C.
Summary of the method: as §1

[3] = test system: CONAR (field bindweed); assay: Pre-emergence herbicidal activity, warm season; assay type: in vivo, Convolvulus arvensis; details: GR80 = lowest tested rate (300, 100, 30, 10 g/ha) with 80% or greater inhibition; approx. 14 days after treating; 30/21° C.
Protocol: (§2) Tables 5 to 8 summarize results of tests conducted as described below to determine the pre-emergence herbicidal activity, in the form of a GR80 value, of illustrative compounds of this invention. […] Compounds of the invention were typically applied at rates of 300, 100, 30, and 10 g/ha. Where herbicidal activity was evident but 80% inhibition was not achieved at the highest rate tested, an asterisk (*) is shown in the following tables.
(§3) The pre-emergence tests were conducted by the following procedure. Topsoil was sieved to pass through a 1.27 cm screen. Fertilizer was added to the topsoil and the mixture was then sterilized by heating. The topsoil mixture was placed in a pot and compacted to a depth of 1.0 to 1.25 cm from the top of the pot. Seeds of each of several monocotyledonous and dicotyledonous annual plant species were placed on top of the soil. Additional soil was subsequently placed over the seeds to level-fill the pot. A known amount of each test compound dissolved or suspended in an appropriate organic solvent was diluted with a 50:50 mix of acetone and water and applied to the surface of the soil. After treatment the plants were placed in a greenhouse where they received 0.64 cm of overhead irrigation. All subsequent watering consisted of a light overhead mist and/or subirrigation as needed for germination and growth. Tables 5 and 6 below relate to warm season plant species which were placed after pre-emergence treatment in a greenhouse with a 30/21° C. day/night temperature regime. Tables 7 and 8 below relates to cool season plant species placed after pre-emergence treatment in a greenhouse or growth chamber with an 18/13° C. day/night temperature regime.
(§4) Approximately 14 days after planting and treating, the plants were observed and herbicidal efficacy recorded as percent inhibition by comparison with untreated plants.
(§5) The plant species usually regarded as weeds which were utilized in the tests are identified in the tables below according to the following legend, in which “d” indicates a dicotyledonous species and “m” a monocotyledonous species. All monocotyledonous species included in the tests herein are grasses.

[4] = test system: POROL (common purslane); assay: Pre-emergence herbicidal activity, warm season; assay type: in vivo, Portulaca oleracea; details: GR80 = lowest tested rate (300, 100, 30, 10 g/ha) with 80% or greater inhibition; approx. 14 days after treating; 30/21° C.
Summary of the method: as §1

[5] = test system: ECHCG (barnyardgrass); assay: Pre-emergence herbicidal activity, warm season; assay type: in vivo, Echinochloa crus-galli; details: GR80 = lowest tested rate (300, 100, 30, 10 g/ha) with 80% or greater inhibition; approx. 14 days after treating; 30/21° C.
Summary of the method: (§6)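 GR80 values derive from percent inhibition relative to untreated plants, read roughly 14 days after sowing and pre-emergence soil-surface treatment (compound in 50:50 acetone/water; rates typically 10, 30, 100, 300 g/ha). Warm-season weeds grew at 30/21° C day/night, cool-season ones at 18/13° C; an asterisk marks activity without reaching 80% at the highest rate.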

[6] = test system: PANMI (wild proso millet); assay: Pre-emergence herbicidal activity, warm season; assay type: in vivo, Panicum miliaceum; details: GR80 = lowest tested rate (300, 100, 30, 10 g/ha) with 80% or greater inhibition; approx. 14 days after treating; 30/21° C.
Summary of the method: (§7)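 Seeds were sown in sterilized, fertilized topsoil, covered, and the soil surface was sprayed with compound in 50:50 acetone/water at 300, 100, 30 and 10 g/ha. Pots were held at 30/21 °C day/night (PANMI, DIGSA) or 18/13 °C (ALOMY, POLCO). GR80 came from percent inhibition versus untreated plants at about 14 days.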

[7] = test system: SORHA (johnsongrass (seedling)); assay: Pre-emergence herbicidal activity, warm season; assay type: in vivo, Sorghum halepense; details: GR80 = lowest tested rate (300, 100, 30, 10 g/ha) with 80% or greater inhibition; approx. 14 days after treating; 30/21° C.
Summary of the method: as §6

[8] = test system: SETFA (giant foxtail); assay: Pre-emergence herbicidal activity, warm season; assay type: in vivo, Setaria faberi; details: GR80 = lowest tested rate (300, 100, 30, 10 g/ha) with 80% or greater inhibition; approx. 14 days after treating; 30/21° C.
Summary of the method: as §6

[9] = test system: PANDI (fall panicum); assay: Pre-emergence herbicidal activity, warm season; assay type: in vivo, Panicum dichotomiflorum; details: GR80 = lowest tested rate (300, 100, 30, 10 g/ha) with 80% or greater inhibition; approx. 14 days after treating; 30/21° C.
Protocol: as §2, §3, §4, §5

[10] = test system: BRAPP (broadleaf signalgrass); assay: Pre-emergence herbicidal activity, warm season; assay type: in vivo, Brachiaria platyphylla; details: GR80 = lowest tested rate (300, 100, 30, 10 g/ha) with 80% or greater inhibition; approx. 14 days after treating; 30/21° C.
Summary of the method: as §6

[11] = test system: GALAP (catchweed bedstraw); assay: Pre-emergence herbicidal activity, cool season; assay type: in vivo, Galium aparine; details: lowest tested rate with 80% or greater inhibition; rates 300, 100, 30, 10 g/ha; about 14 days
Summary of the method: as §1

[12] = test system: POLCO (wild buckwheat); assay: Pre-emergence herbicidal activity, cool season; assay type: in vivo, Polygonum convolvulus; details: lowest tested rate with 80% or greater inhibition; rates 300, 100, 30, 10 g/ha; about 14 days
Summary of the method: as §7

[13] = test system: SINAR (wild mustard); assay: Pre-emergence herbicidal activity, cool season; assay type: in vivo, Sinapis arvensis; details: lowest tested rate with 80% or greater inhibition; rates 300, 100, 30, 10 g/ha; about 14 days
Summary of the method: as §1

[14] = test system: VERPE (creeping speedwell); assay: Pre-emergence herbicidal activity, cool season; assay type: in vivo, Veronica persicaria; details: lowest tested rate with 80% or greater inhibition; rates 300, 100, 30, 10 g/ha; about 14 days
Summary of the method: as §1

[15] = test system: SASKR (russian thistle); assay: Pre-emergence herbicidal activity, cool season; assay type: in vivo, Salsola kali; details: lowest tested rate with 80% or greater inhibition; rates 300, 100, 30, 10 g/ha; about 14 days
Summary of the method: as §1

[16] = test system: STEME (common chickweed); assay: Pre-emergence herbicidal activity, cool season; assay type: in vivo, Stellaria media; details: lowest tested rate with 80% or greater inhibition; rates 300, 100, 30, 10 g/ha; about 14 days
Summary of the method: as §1

[17] = test system: LAMPU (purple deadnettle); assay: Pre-emergence herbicidal activity, cool season; assay type: in vivo, Lamium purpureum; details: lowest tested rate with 80% or greater inhibition; rates 300, 100, 30, 10 g/ha; about 14 days
Summary of the method: as §1

[18] = test system: ALOMY (blackgrass); assay: Pre-emergence herbicidal activity, cool season; assay type: in vivo, Alopecurus myosuroides; details: GR80 = lowest tested rate (300, 100, 30, 10 g/ha) with 80% or greater inhibition; approx. 14 days after treating; 18/13° C.
Summary of the method: as §7

[19] = test system: SETVI (green foxtail); assay: Pre-emergence herbicidal activity, cool season; assay type: in vivo, Setaria viridis; details: GR80 = lowest tested rate (300, 100, 30, 10 g/ha) with 80% or greater inhibition; approx. 14 days after treating; 18/13° C.
Summary of the method: as §1

[20] = test system: LOLMG (annual ryegrass); assay: Pre-emergence herbicidal activity, cool season; assay type: in vivo, Lolium multiflorum; details: GR80 = lowest tested rate (300, 100, 30, 10 g/ha) with 80% or greater inhibition; approx. 14 days after treating; 18/13° C.
Summary of the method: as §1

[21] = test system: AGSST (creeping bentgrass); assay: Pre-emergence herbicidal activity, cool season; assay type: in vivo, Agrostis stolonifera; details: GR80 = lowest tested rate (300, 100, 30, 10 g/ha) with 80% or greater inhibition; approx. 14 days after treating; 18/13° C.
Summary of the method: as §1

Compound: CCSC(F)(F)S(=O)(=O)c1ncn(C(=O)N2CCCC2)n1 [Example 47]
- Pre-emergence activity (GR80) SOLNI [1]: 300 g/ha
- Pre-emergence activity (GR80) CHEAL [2]: 300 g/ha
- Pre-emergence activity (GR80) CONAR [3]: 300 g/ha
- Pre-emergence activity (GR80) POROL [4]: 300 g/ha
- Pre-emergence activity (GR80) ECHCG [5]: 300 g/ha
- Pre-emergence activity (GR80) PANMI [6]: 100 g/ha
- Pre-emergence activity (GR80) SORHA [7]: 300 g/ha
- Pre-emergence activity (GR80) SETFA [8]: 300 g/ha
- Pre-emergence activity (GR80) PANDI [9]: 300 g/ha
- Pre-emergence activity (GR80) BRAPP [10]: 300 g/ha
- Pre-emergence activity GR80, GALAP [11]: 300 g/ha
- Pre-emergence activity GR80, POLCO [12]: [empty]
- Pre-emergence activity GR80, SINAR [13]: 300 g/ha
- Pre-emergence activity GR80, VERPE [14]: 10 g/ha
- Pre-emergence activity GR80, SASKR [15]: 100 g/ha
- Pre-emergence activity GR80, STEME [16]: 30 g/ha
- Pre-emergence activity GR80, LAMPU [17]: 30 g/ha
- Pre-emergence activity (GR80) ALOMY [18]: 300 g/ha
- Pre-emergence activity (GR80) SETVI [19]: 300 g/ha
- Pre-emergence activity (GR80) LOLMG [20]: 300 g/ha
- Pre-emergence activity (GR80) AGSST [21]: 30 g/ha
